# Experimental data taken from patent publication US20240317727A1 (Duke University, priority 2018, published 2024).
# Key:
# SR = assay: NCI60 cell growth and viability: SR; type: cell-based; settings: Leukemia, two days
# HCC-2998 = assay: NCI60 cell growth and viability: HCC-2998; type: cell-based; settings: HCC-2998, Colon Cancer, two days
# MALME-3M = assay: NCI60 cell growth and viability: MALME-3M; type: cell-based; settings: Melanoma, two days
# RXF 393 = assay: NCI60 cell growth and viability: RXF 393; type: cell-based; settings: RXF 393, Renal Cancer, two days
# DU-145 = assay: NCI60 cell growth and viability: DU-145; type: cell-based; settings: DU-145, Prostate Cancer, two days
# MDA-MB-231 = assay: NCI60 cell growth and viability: MDA-MB-231; type: cell-based; settings: MDA-MB-231, Breast Cancer, two days
# MDA-MB-468 = assay: NCI60 cell growth and viability: MDA-MB-468
# [1] = Homo sapiens, 48 h, read-out: log10 [GI50 (M)] (converted)
# [2] = Homo sapiens, 48 h, read-out: log10 [LC50 (M)] (converted)
smiles,measurement,setting,value
"O=C(Nc1ccc(F)cc1)Nc1ccc(Cl)c([N+](=O)[O-])c1 [Compound 0017, 1-(4-chloro-3-nitrophenyl)-3-(4-fluorophenyl)urea]",GI50,SR; [1],3.39e-06 M
same,CC50,SR; [2],≥ 0.0001 M
same,log10 [TGI (M)],SR,−4.00 log10 M
same,log10 [TGI (M)],HCC-2998,−4.84 log10 M
same,GI50,HCC-2998; [1],3.72e-06 M
same,CC50,HCC-2998; [2],4.27e-05 M
same,GI50,MALME-3M; [1],2.34e-06 M
same,CC50,MALME-3M; [2],2.95e-05 M
same,log10 [TGI (M)],MALME-3M,−5.14 log10 M
same,GI50,RXF 393; [1],1.74e-06 M
same,CC50,RXF 393; [2],2.82e-05 M
same,log10 [TGI (M)],RXF 393,−5.17 log10 M
same,log10 [TGI (M)],DU-145,−4.67 log10 M
same,GI50,DU-145; [1],4.47e-06 M
same,CC50,DU-145; [2],≥ 0.0001 M
same,GI50,MDA-MB-231; [1],2.51e-06 M
same,CC50,MDA-MB-231; [2],3.39e-05 M
same,log10 [TGI (M)],MDA-MB-231,−5.19 log10 M
same,GI50,"MDA-MB-468; Homo sapiens, MDA-MB-468, 48 h, read-out: log10 [GI50 (M)] (converted)",2.14e-06 M
same,CC50,"MDA-MB-468; Homo sapiens, MDA-MB-468, 48 h, read-out: log10 [LC50 (M)] (converted)",3.55e-05 M
same,log10 [TGI (M)],"MDA-MB-468; MDA-MB-468, Breast Cancer, two days",−5.12 log10 M
